The source of these data is patent US10245239B2, “Astaxanthin anti-inflammatory synergistic combinations” (Lycored Ltd., priority 2013, dated 2019).

SMILES strings stand for the structures.

Experiment [1] has as its system LPS-stimulated macrophages. Put plainly: NO production by LPS-stimulated macrophages. To be noted: astaxanthin alone, FIG. 1. In kind it is cell-based, ICR mice. The procedure: (§1) 100 U/ml penicillin. […] streptomycin (Beit-Haemek, Israel).
(§2) The anti-inflammatory effect was detected by inhibition of NO production and of TNF alpha production by LPS-stimulated macrophages.
NO levels in supernatants of cell cultures were determined by assaying nitrite levels using Griess reagent and sodium nitrite as a standard.

Experiment [2] deals with LPS-stimulated macrophages. Briefly: TNF-alpha production by LPS-stimulated macrophages (ELISA). The conditions noted are these: astaxanthin alone, FIG. 3. It is filed as cell-based, ICR mice. The protocol: as §1
Concentrations of TNF-alpha in cell culture supernatants were quantified by ELISA kits (Biolegend, SanDiego, Calif., USA).
as §2
(ELISA stands for enzyme-linked immunosorbent assay.)

For the molecule `CC1=C(/C=C/C(C)=C/C=C/C(C)=C/C=C/C=C(C)/C=C/C=C(C)/C=C/C2=C(C)C(=O)[C@@H](O)CC2(C)C)C(C)(C)C[C@H](O)C1=O` [astaxanthin], in experiment [1], the “inhibition of NO production” value is reported as “in a dose dependent manner”. The “inhibition of TNF alpha production” value in experiment [2] is “in a dose dependent manner”.
